Measured values taken from PMC7717600, “Novel [(N-alkyl-3-indolylmethylene)hydrazono]oxindoles arrest cell cycle and induce cell apoptosis by inhibiting CDK2 and Bcl-2: synthesis, biological evaluation and in silico studies” (Journal of Enzyme Inhibition and Medicinal Chemistry, 2020).

Experiments:
HCT-116 = assay: SRB anti-proliferative assay; type: cell-based; conditions: Homo sapiens; HCT-116, SRB, mean ± SE of 3
Experimental: (§1) All the newly prepared target conjugates (7, 8a–c, 9 and 10a–e) were investigated for the prospective growth inhibitory actions against three different cancer cell lines viz.; A-549, MDA-MB-231, and HCT-116, using the sulforhodamine B colorimetric (SRB) assay. Staurosporine, a clinically used antitumor drug, was co-assayed as a reference agent for the experiment.
(§2) Examination of the cytotoxic activity for the target conjugates was carried out in accordance with the SRB colorimetric assay protocol, as described previously.
(§3) In vitro anti-proliferative activity assay
(§4) Cells at a concentration of 0.50 x
(§5) Sulfo-Rhodamine-B stain (SRB) assay.
(§6) cell to the wall of the plate.
(§7) wells were prepared for each individual dose).
(§8) Unbound dye was removed by four

MDA-MB-231 = assay: SRB anti-proliferative assay; type: cell-based; conditions: Homo sapiens; MDA-MB-231, SRB, mean ± SE of 3
Experimental: as §1, §2, §3, §4, §5, §6, §7, §8

A-549 = assay: SRB anti-proliferative assay; type: cell-based; conditions: Homo sapiens, A549; A-549, SRB, mean ± SE of 3
Experimental: Staurosporine, a clinically used antitumor drug, was co-assayed as a reference agent for the experiment.
as §2, §3, §4, §5, §6, §7, §8

CDK5 = test system: CDK5; parameters: method as in PMID 11439342; conditions: CDK5 ref 4; cited from earlier work
CDK2 = CDK2 (Homo sapiens, UniProt P24941); conditions: CDK2 ref 4; cited from earlier work
CDK1 = test system: CDK1; parameters: method as in PMID 11439342; conditions: CDK1 ref 4; cited from earlier work

| SMILES | IC50 (HCT-116) [µM] | IC50 (MDA-MB-231) [µM] | IC50 (A-549) [µM] | IC50 (CDK5) [µM] | IC50 (CDK2) [µM] | IC50 (CDK1) [µM] |
| --- | --- | --- | --- | --- | --- | --- |
| CCn1cc(C=NN=C2C(=O)Nc3ccc(Cl)cc32)c2ccccc21 [Compound 7] | 19.7 ± 1.28 | 27.6 ± 1.76 | 50 ± 3.37 | – | – | – |
| C=CCn1cc(C=NN=C2C(=O)Nc3ccc(F)cc32)c2ccccc21 [Compound 10b] | 36.3 ± 2.35 | 54 ± 4.17 | 59.9 ± 3.58 | – | – | – |
| C=CCn1cc(/C=N/N=C2\C(=O)Nc3ccc(OC(F)(F)F)cc32)c2ccccc21 [Compound 10e] | 37.4 ± 2.06 | 51.8 ± 3.77 | 40.2 ± 1.88 | – | – | – |
| COc1cccc2c1C(=O)c1c(O)c3c(c(O)c1C2=O)C[C@@](O)(C(=O)CO)C[C@@H]3O[C@H]1C[C@H](N)[C@H](O)[C@H](C)O1 [Dox., doxorubicin, reference compound] | 3.7 ± 0.24 | 4.5 ± 0.29 | 2.3 ± 0.17 | – | – | – |
| O=C1Nc2ccccc2/C1=C1/Nc2ccccc2C1=NO [Indirubin-3′-oxime] | – | – | – | 0.25 | 0.5 | 0.18 |
